Measurements from the supplement of paper PMC10307832.

What was measured:
Assay in all cases: relative viability (nuclei count vs DMSO), 5 days (fraction); higher = more cells survive
[1] = compound: CC(C)N(CCCNC(=O)Nc1ccc(C(C)(C)C)cc1)C[C@H]1O[C@@H](n2ccc3c(N)ncnc32)[C@H](O)[C@@H]1O + Cc1nc(Nc2ncc(C(=O)Nc3c(C)cccc3Cl)s2)cc(N2CCN(CCO)CC2)n1 [Dasatinib] (partner 0.075 µM)
Procedure, shortened: (§1)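 Relative viability divides the nuclei count in treated wells by that in vehicle wells. Lung cancer cell lines were seeded in 1536-well plates, dosed by pin tool the next day, and fixed and stained after 5 days in one step with final 0.05% Triton X-100, 1% formaldehyde and 1 ug/ml Hoechst. Dosing was a single drug or a fixed anchor-drug dose plus five library-drug doses (not always all listed) in √10 steps, and values are medians of duplicate plates imaged at 4×.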

[2] = compound: CC(C)=CC[C@@H](O)C1=CC(=O)c2c(O)ccc(O)c2C1=O [Shikonin] + Cc1cc(Nc2cc(N3CCN(C)CC3)nc(Sc3ccc(NC(=O)C4CC4)cc3)n2)n[nH]1 [Tozasertib] (partner 0.1 µM)
Procedure, shortened: as §1

[3] = compound: CC(C)N(CCCNC(=O)Nc1ccc(C(C)(C)C)cc1)C[C@H]1O[C@@H](n2ccc3c(N)ncnc32)[C@H](O)[C@@H]1O + COc1cccc2cc(-c3nc([C@H]4CC[C@H](C(=O)O)CC4)n4ncnc(N)c34)[nH]c12 [OSI-027] (partner 0.5 µM)
Procedure, shortened: as §1

[4] = compound: CC(C)N(CCCNC(=O)Nc1ccc(C(C)(C)C)cc1)C[C@H]1O[C@@H](n2ccc3c(N)ncnc32)[C@H](O)[C@@H]1O + Nc1nc2[nH]cc(CCc3ccc(C(=O)N[C@@H](CCC(=O)O)C(=O)O)cc3)c2c(=O)[nH]1 [Pemetrexed] (partner 0.2 µM)
Procedure, shortened: as §1

Cell Line: UMC-11
- relative viability ([1]; first compound 0.08 µM): 0.461
- relative viability ([1]; first compound 0.253 µM): 0.422
- relative viability ([1]; first compound 0.8 µM): 0.436
- relative viability ([1]; first compound 2.53 µM): 0.486
- relative viability ([1]; first compound 8 µM): 0.492
- relative viability ([2]; first compound 0.01 µM): 0.185
- relative viability ([2]; first compound 0.1 µM): 0.213
- relative viability ([2]; first compound 0.3162 µM): 0.203
- relative viability ([2]; first compound 1 µM): 0.169
- relative viability ([3]; first compound 0.08 µM): 0.458
- relative viability ([3]; first compound 0.253 µM): 0.465
- relative viability ([3]; first compound 0.8 µM): 0.453
- relative viability ([3]; first compound 2.53 µM): 0.522
- relative viability ([3]; first compound 8 µM): 0.532
- relative viability ([4]; first compound 0.08 µM): 0.803
- relative viability ([4]; first compound 0.253 µM): 0.748
- relative viability ([4]; first compound 0.8 µM): 0.791
- relative viability ([4]; first compound 2.53 µM): 0.79
- relative viability ([4]; first compound 8 µM): 0.806
